Test results published in patent US20110263696A1, “PROANTHOCYANIDINS FROM CINNAMON AND ITS WATER SOLUBLE EXTRACT INHIBIT TAU AGGREGATION” (priority 2007, published 2011).

Key:
[1] = test system: tau-dependent MT assembly; experiment: Tau-dependent microtubule assembly, turbidity OD350; assay type: biochemical; conditions: tubulin 5 uM, tau187, turbidity OD350
Procedure: FIG. 9. […] Tubulin (5 uM) was incubated (a) alone, or with (b) CE, (c) tau or (d) both. MT assembly was monitored by turbidity at OD350 in a continuous spectrophotometric assay.
The normal function of tau in neurons is to regulate MT assembly and dynamics. Thus it is desirable for a potential AD therapeutic to inhibit tau aggregation but not impede normal tau function. To test this, purified tubulin was incubated with either CE, tau187 or both, and MT assembly was monitored by solution turbidity. […] The reason for this is unclear, but since tau is normally an unstructured molecule, it is possible that CE promotes a conformer in tau that favors MT binding. Thus CE and proanthocyanidins appear to act as specific inhibitors of tau aggregation that are free of side effects on normal neuron function.

tau filaments = experiment: Transmission electron microscopy of tau filaments; assay type: biochemical; conditions: aggregating conditions
tau filaments, sequence (P10636 572-758 limits assumed): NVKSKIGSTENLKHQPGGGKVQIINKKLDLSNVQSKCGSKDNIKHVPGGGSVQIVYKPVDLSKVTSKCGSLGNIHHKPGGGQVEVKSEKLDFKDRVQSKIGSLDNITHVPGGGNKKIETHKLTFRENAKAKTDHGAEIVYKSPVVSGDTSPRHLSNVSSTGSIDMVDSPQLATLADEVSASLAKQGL
Description: In one illustrative embodiment of the invention, transmission electron microscopy, is a highly desirable technique for studies of aggregation with heparin and water or with heparin and purified proanthocyanidin or cinnamon extracts from Cinnamomum zeylanicum, Cinnamomum cassia, or Cinnamomum loueirii. It provides definition of what the aggregates actually are, e.g., filaments and their abundance, sizes, and shapes.

A-linked proanthocyanidin trimer [A-type trimer]
Effect on tau-dependent MT assembly [1]: does not inhibit
Formation of tau filaments by transmission electron microscopy (tau filaments): inhibited
